The results in this text go back to ChEMBL document CHEMBL1134895, “Synthesis and dopamine transporter binding affinities of 3alpha-benzyl-8-(diarylmethoxyethyl)-8-azabicyclo[3.2.1]octanes” (Bioorg Med Chem Lett, 2002).

A word on the Ki: it is the dissociation constant of the complex between target and ligand, obtained from inhibition or displacement. Lower therefore signals a stronger hold on the target.

Chain of Sodium-dependent dopamine transporter (P23977 whole entry): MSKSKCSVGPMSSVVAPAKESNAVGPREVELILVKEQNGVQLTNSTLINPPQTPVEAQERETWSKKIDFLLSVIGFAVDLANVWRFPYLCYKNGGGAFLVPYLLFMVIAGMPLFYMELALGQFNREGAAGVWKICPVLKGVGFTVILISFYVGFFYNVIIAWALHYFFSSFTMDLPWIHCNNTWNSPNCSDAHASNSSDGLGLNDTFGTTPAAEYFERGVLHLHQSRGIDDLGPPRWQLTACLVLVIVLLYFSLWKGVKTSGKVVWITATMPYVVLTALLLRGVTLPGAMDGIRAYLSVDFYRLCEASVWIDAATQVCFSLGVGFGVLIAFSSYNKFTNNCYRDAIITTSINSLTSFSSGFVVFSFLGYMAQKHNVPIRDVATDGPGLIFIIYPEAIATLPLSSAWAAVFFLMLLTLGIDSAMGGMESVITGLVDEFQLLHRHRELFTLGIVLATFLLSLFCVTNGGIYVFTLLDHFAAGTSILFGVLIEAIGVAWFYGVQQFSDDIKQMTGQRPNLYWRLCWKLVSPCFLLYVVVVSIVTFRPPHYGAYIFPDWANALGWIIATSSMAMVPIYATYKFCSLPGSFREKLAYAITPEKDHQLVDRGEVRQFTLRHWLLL

The assay concerns the target Sodium-dependent dopamine transporter (Rattus norvegicus, UniProt P23977). Description: Displacement of [3H]WIN-35428 from dopamine transporter of rat caudate putamen tissue. Type of assay: tissue-based. For orientation: Loss of bound radioactivity is the signal in a displacement assay; it reports binding, not function.
`c1ccc(CC2CC3CCC(C2)N3CCOC(c2ccccc2)c2ccccc2)cc1` (centres undefined) showed an inhibition constant Ki of 0.098 µM.

In the case of `Clc1ccc(C(OCCN2C3CCC2CC(Cc2ccccc2)C3)c2ccc(Cl)cc2)cc1` (centres undefined), the Ki is 0.346 µM.

On to `Cc1ccc(C(OCCN2C3CCC2CC(Cc2ccccc2)C3)c2ccc(C)cc2)cc1` (centres undefined), for which the Ki is 0.217 µM.

`Clc1ccc(C(OCCN2C3CCC2CC(Cc2ccccc2)C3)c2ccccc2)cc1` (centres undefined) returned a Ki of 0.198 µM.

As to `Fc1ccc(C(OCCN2CCC(CCCc3ccccc3)CC2)c2ccc(F)cc2)cc1`, the Ki was found to be 0.595 µM.

In turn, `c1ccc(CN2C3CCC2CC(CCOC(c2ccccc2)c2ccccc2)C3)cc1` (centres undefined) gave a Ki of 0.099 µM.

Take `Fc1ccc(C(OCCC2CCN(CCCc3ccccc3)CC2)c2ccc(F)cc2)cc1`: the inhibitory constant (Ki) was 0.025 µM.

Regarding `Fc1ccc(C(OCCN2C3CCC2CC(Cc2ccccc2)C3)c2ccc(F)cc2)cc1` (centres undefined), the Ki turned out to be 0.144 µM.

Consider `COc1ccc(C(OCCN2C3CCC2CC(Cc2ccccc2)C3)c2ccc(OC)cc2)cc1` (centres undefined), for which affinity was put at a Ki of 0.135 µM.
